Assay results as given in patent US8119619B2, “Pregnane steroids and their use in the treatment of CNS disorders” (Umecrine AB, priority 2001, dated 2012).
Values joined by “and” are separate entries in the source; they are usually repeats but may differ in a detail not shown here. Equal values may be shown once. “Also recorded” adds a separate entry of the source.

How the values were obtained:
[1] = system: GABA-A receptor; test: Cortical tissue homogenate study: radioactive chloride uptake into vesicles through the GABA-A receptor; format: biochemical, rat; settings: for Mean % (SEM) chloride uptake relative to only 10 uM GABA: 10 μM GABA alone = 100%, 3alpha-hydroxy-5alpha-pregnan-20-one 0-3000 nM + 10 μM GABA + 30 μM interacting steroid, reference steroid tested without blocker; for Within group change from 0 nM 3alpha-hydroxy-5alpha-pregnan-20-one: doses of 3alpha-hydroxy-5alpha-pregnan-20-one: 1=0, 2=50, 3=100, 4=150, 5=200, 6=1000, 7=3000 nM, + 10 μM GABA + 30 μM steroid
Procedure: In these studies cortical tissue from mature male rats was homogenized in buffer. As a result of this procedure a suspension of small vesicles was formed, said vesicles having GABA-A receptors on their surface. When radioactive chloride is added to this suspension, a certain amount will enter the vesicles. This amount is related to how much open the GABA-A receptor is. Drugs that open the receptor will increase the amount of chloride in the vesicles in relation to the dosage of the drug. Similarly, drugs that close the GABA-A receptor will decrease the amount of chloride moving into the vesicles. The labeled chloride outside of the vesicles was washed away and separated from the chloride inside. The amount of radioactively labeled chloride inside the vesicles was thereafter measured in a fluid scintillator and a curve drawn.
At each experiment, a control of increasing dosages of GABA was used to ensure that the tissue sample is working properly. A second control was used to enhance the effect of 10 μM of GABA by adding increasing dosages 3alpha-hydroxy-5alpha-pregnan-20-one.
The effect is shown as a percentage change from the uptake with only 10 μM GABA and no 3 alpha-hydroxy-5alpha-pregnan-20-one in this case given the measure 100%.
In all cases 3alpha-hydroxy-5alpha-pregnan-20-one is given in increasing dosages 1=0, 2=50, 3=100, 4=150, 5=200, 6=1000, 7=3000 nM+10 μM GABA+30 μM of interacting Steroid. H=high, S=significant, NS=non significant. Statistical testing made with repeated measures ANOVA followed post hoc with lest significant difference test.

[2] = system: rats; test: Morris water maze learning model; format: in vivo, rat; settings: for Learning to find the hidden platform (latency), substance given alone: i.v. daily for 6 days, four trials per day, UC1011 20 mg/kg or 3alpha-hydroxy-5alpha-pregnan-20-one 2 mg/kg, UC1011 vs 3alpha group p<0.05 day 3-6
From the text: Animal studies using the Morris water-maze model have been performed. In the Morris water-maze model, the learning capacity of the test animals can be observed. The test animal, usually a rat, is placed in a container with water, having a platform at one location. This platform is slightly under the surface of the water, and the rat must swim until it finds the platform. In following test sessions the rat will learn were the platform is by looking at markings on the wall of the room. It is known, that the learning process is negatively influenced by the administration of CNS depressing 3alpha-hydroxy-pregnan-steroids. (Johansson L M, Birzniece V, Lindblad C., Olsson T. and Bäckström T (2002) Allopregnanolone inhibits learning in the Morris water maze. Brain Res 934, 125-131).
The results (FIG. 3) indicate, that this negative effect is removed or alleviated through the administration of a compound according to the present invention. The experiments were conducted using 3alpha-hydroxy-pregnan-20-one as learning disturbing substance (CAS no. 516-54-1, Table 1) and 3beta,20beta-dihydroxy-5alpha-pregnane, UC1011, (CAS 516-53-9, Table 2 and 3) as blocking substance. Rats (n=46) where injected (i.v) daily with 3beta,20beta-dihydroxy-5alpha-pregnane, UC1011 20 mg/kg (n=14), 3alpha-hydroxy-5alpha-pregnan-20-one 2 mg/kg (n=14), 3alpha-hydroxy-5alpha-pregnan-20-one+3beta,20beta-dihydroxy-5alpha-pregnane, UC1011 2:20 mg/kg (n=14), or vehicle (n=4) Animals were given four swim trials daily with maximal swimming time 120 second for each trial. The rats started to swim 8 minute after the 3alpha-hydroxy-5alpha-pregnan-20-one injection for 6 days. The performance of rats was monitored with a video camera and data was analyzed with analysis of variance (ANOVA) followed by post hoc test.

| Compound | Mean % (SEM) chloride uptake relative to only 10 uM GABA [1] | Within group change from 0 nM 3alpha-hydroxy-5alpha-pregnan-20-one [1] | Latency to find the platform ([2]; 2 mg/kg i.v. daily, after 6 days with practice, max swimming time 120 second) | Learning to find the hidden platform (latency), substance given alone [2] | Learning to find the hidden platform (latency), substance given alone ([2]; listed as 3alpha-hydroxy-5alpha-preganane-20-one) | Effect on the increase in chloride uptake induced by 3alpha-hydroxy-5alpha-pregnan-20-one (FIG. 2) ([1]; 30 μM blocker, 10 μM GABA, increasing 3alpha-hydroxy-5alpha-pregnan-20-one) | Learning to find the hidden platform (latency), blocker given with 3alpha-hydroxy-5alpha-pregnan-20-one ([2]; 3alpha-hydroxy-5alpha-pregnan-20-one + UC1011 2:20 mg/kg i.v. daily for 6 days, compared with the 3alpha-hydroxy-5alpha-pregnan-20-one group, p<0.05 day 4-6, 20 mg/kg) |
| --- | --- | --- | --- | --- | --- | --- | --- |
| 3beta-hydroxy-5alpha-pregnan-20-one-sulfate, sodium salt [UC1016] | 109.8(19) % | All dosages = NS |  |  |  |  |  |
| CC(=O)[C@H]1CC[C@H]2[C@@H]3CC[C@H]4C[C@H](O)CC[C@]4(C)[C@H]3CC[C@]12C [3alpha-hydroxy-5alpha-pregnan-20-one, reference compound] | 167.7% and 167.7(13) % | Dose 3, 5, 6, 7 = S | above 80 seconds | inhibits spatial learning | do not learn significantly within six days |  |  |
| CC(=O)[C@H]1CC[C@H]2[C@@H]3CC[C@H]4C[C@@H](O)CC[C@]4(C)[C@H]3CC[C@]12C [UC1010, 3beta-hydroxy-5alpha-pregnan-20-one] | 104.4(13) % | Dos 7 = S H; also recorded: The rest = NS |  |  |  |  |  |
| CC(O)C1CCC2C3CCC4CC(O)CCC4(C)C3CCC12C (stereo not drawn) [UC1011, 3beta,20beta-dihydroxy-5alpha-pregnane] | 81.9(19) % | All dosages = NS |  | learned to find the platform as quickly as the control group; also recorded: learn to find the platform on the tired day of training |  | blocked | lower latency time; also recorded: start to learn significantly on the 4th day of training |
| C[C@H](O)[C@H]1CC[C@H]2[C@@H]3CC[C@@H]4C[C@@H](O)CC[C@]4(C)[C@H]3CC[C@]12C [UC1013, 3beta,20alpha-dihydroxy-5beta-pregnane] | 84.2(22) % | All dosages = NS |  |  |  |  |  |
| CC(=O)[C@H]1CC[C@H]2[C@@H]3CC[C@@H]4C[C@@H](O)CC[C@]4(C)[C@H]3CC[C@]12C [UC1014, 3beta-hydroxy-5beta-pregnan 20-one] | 92.9(22) % | All dosages NS |  |  |  |  |  |
| C[C@]12CC[C@H](O)C[C@H]1CC[C@@H]1[C@@H]2CC[C@]2(C)[C@@H](C(=O)CO)CC[C@@H]12 [UC1015, 3beta,21-dihydroxy-5beta-pregnan-20-one] | 102.7(22) % | All dosages = NS |  |  |  |  |  |
| CC(=O)[C@H]1CC[C@H]2[C@@H]3CC[C@H]4C[C@@H](O)CC[C@]4(C)[C@H]3C(=O)C[C@]12C [UC1017, 3beta hydroxy-5alpha-pregnan-11,20-dione] |  | All dosages = NS |  |  |  |  |  |
| CC(=O)[C@H]1CC[C@H]2[C@@H]3CC=C4C[C@@H](OS(=O)(=O)[O-])CC[C@]4(C)[C@H]3CC[C@]12C.[Na+] [UC1018, 3beta-hydroxy-delta5-pregnen-20-one-sulfate, sodium salt] | 64.7(23) % | All dosages = NS |  |  |  |  |  |
